Source: ChEMBL document CHEMBL5550204, “Discovery of ZJCK-6-46: A Potent, Selective, and Orally Available Dual-Specificity Tyrosine Phosphorylation-Regulated Kinase 1A Inhibitor for the Treatment of Alzheimer's Disease” (J Med Chem, 2024)
Activity calls are given as the source filed them. The rule behind the calls is not given here.

Assays:
[1] = target: T1, Dual specificity protein kinase CLK4 (Homo sapiens, UniProt Q9HAZ1); assay: Inhibition of CLK4 (unknown origin) at 1 uM preincubated with enzyme for 10 mins followed by substrate and ATP addition measured after 60 mins by ADP-Glo reagent based assay relative to control; details: time 70.0 min
Target sequence in this assay (Q9HAZ1 whole entry, looked up): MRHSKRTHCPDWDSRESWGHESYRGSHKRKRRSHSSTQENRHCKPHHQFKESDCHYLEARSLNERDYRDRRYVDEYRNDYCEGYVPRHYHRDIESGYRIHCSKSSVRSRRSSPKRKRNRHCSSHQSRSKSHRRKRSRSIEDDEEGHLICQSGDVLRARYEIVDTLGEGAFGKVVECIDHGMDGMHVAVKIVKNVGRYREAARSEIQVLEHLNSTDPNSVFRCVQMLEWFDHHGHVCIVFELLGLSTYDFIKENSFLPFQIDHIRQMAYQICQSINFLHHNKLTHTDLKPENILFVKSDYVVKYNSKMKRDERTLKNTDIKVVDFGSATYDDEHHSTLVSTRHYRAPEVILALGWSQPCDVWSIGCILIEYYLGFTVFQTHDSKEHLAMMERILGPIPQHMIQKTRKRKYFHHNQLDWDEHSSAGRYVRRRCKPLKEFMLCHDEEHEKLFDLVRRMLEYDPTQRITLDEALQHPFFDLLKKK

[2] = Half life in Sprague-Dawley rat at 2 mg/kg,iv measured upto 24 hrs by LC-MS/MS analysis; format: ADME, organism-based; details: in vivo
CYP1A2 = CYP1A2 (Homo sapiens, UniProt P05177); assay: Inhibition of CYP1A2 in human liver microsomes using phenacetin as substrate at 10 uM preincubated for 10 mins followed by NADPH addition and measured after 40 mins by LC-MS/MS analysis relative to control; format: ADME, Microsome; details: probe phenacetin, time 50 min
Chain of CYP1A2 (P05177 whole entry): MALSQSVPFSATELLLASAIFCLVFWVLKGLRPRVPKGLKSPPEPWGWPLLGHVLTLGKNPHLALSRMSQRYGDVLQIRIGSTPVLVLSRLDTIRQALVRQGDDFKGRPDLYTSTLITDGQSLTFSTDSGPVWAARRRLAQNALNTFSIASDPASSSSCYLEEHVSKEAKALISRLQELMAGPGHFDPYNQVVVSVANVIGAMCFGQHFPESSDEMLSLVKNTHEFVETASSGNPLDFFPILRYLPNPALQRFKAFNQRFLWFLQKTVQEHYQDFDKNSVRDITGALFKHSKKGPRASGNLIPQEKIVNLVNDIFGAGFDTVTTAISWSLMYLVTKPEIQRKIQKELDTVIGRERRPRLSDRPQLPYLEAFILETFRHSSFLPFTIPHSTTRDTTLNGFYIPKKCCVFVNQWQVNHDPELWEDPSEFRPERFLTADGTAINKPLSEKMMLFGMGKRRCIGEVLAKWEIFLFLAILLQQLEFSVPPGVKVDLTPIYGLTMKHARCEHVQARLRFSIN

[3] = Acute toxicity in C57BL/6 mouse assessed as histopathological change in spleen at 500 mg/kg,po observed after 14 days by hematoxylin-eosin staining based analysis; format: organism-based; details: in vivo, 336 h, time 14 day
[4] = Drug concentration in Sprague-Dawley rat brain at 10 mg/kg,po measured after 4 hrs by LC-MS/MS analysis; format: ADME, organism-based; details: read-out: Ct
SH-SY5Y = assay: Cytotoxicity against human SH-SY5Y cells expressing human Tau P301L mutant at 20 uM incubated for 24 hrs by MTT assay; format: functional, cell-based
Mus musculus [5] = assay: Antialzheimer activity in okadaic acid-induced cognitive impairment C57BL/6 mouse assessed as downregulation of Tau phosphorylation at Thr212 residue in hippocampal DG region at 10 to 30 mg/kg,po once daily for 2 weeks by immunohistochemical staining analysis; format: functional, organism-based; details: dose 10-30 mg/kg
Mus musculus [6] = assay: Antialzheimer activity in okadaic acid-induced cognitive impairment C57BL/6 mouse assessed as decrease in learning deficit at 10 to 30 mg/kg,po once daily for 2 weeks by Morris water maze test; format: functional, organism-based; details: dose 10-30 mg/kg
[7] = Drug concentration in Sprague-Dawley rat brain at 10 mg/kg,po measured after 1 hr by LC-MS/MS analysis; format: ADME, organism-based; details: read-out: Ct
[8] = AUC (0 to infinity) in Sprague-Dawley rat at 2 mg/kg,iv measured upto 24 hrs by LC-MS/MS analysis; format: ADME, organism-based; details: in vivo
[9] = target: T2, Dual specificity protein kinase CLK3 (Homo sapiens, UniProt P49761); assay: Inhibition of CLK3 (unknown origin) at 1 uM preincubated with enzyme for 10 mins followed by substrate and ATP addition measured after 60 mins by ADP-Glo reagent based assay relative to control; details: time 70.0 min
Target sequence in this assay (P49761 whole entry, looked up): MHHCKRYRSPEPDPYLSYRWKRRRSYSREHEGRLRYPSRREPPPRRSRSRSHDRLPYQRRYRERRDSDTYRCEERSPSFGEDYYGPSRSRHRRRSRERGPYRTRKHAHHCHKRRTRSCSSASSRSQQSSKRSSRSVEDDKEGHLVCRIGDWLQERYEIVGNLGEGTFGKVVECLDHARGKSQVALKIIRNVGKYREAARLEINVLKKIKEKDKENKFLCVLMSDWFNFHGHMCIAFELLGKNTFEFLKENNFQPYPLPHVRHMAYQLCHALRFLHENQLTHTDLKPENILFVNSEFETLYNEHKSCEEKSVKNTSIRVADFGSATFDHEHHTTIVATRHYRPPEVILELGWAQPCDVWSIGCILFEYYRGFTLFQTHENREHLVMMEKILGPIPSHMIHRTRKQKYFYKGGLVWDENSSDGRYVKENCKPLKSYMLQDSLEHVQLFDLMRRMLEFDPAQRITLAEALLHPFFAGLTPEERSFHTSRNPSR

[10] = Oral bioavailability in Sprague-Dawley rat at 10 mg/kg measured upto 24 hrs by LC-MS/MS analysis; format: ADME, organism-based; details: in vivo
[11] = Metabolic stability in human liver microsomes assessed as half life at 1 uM incubated upto 45 mins in presence of NADPH by LC-MS/MS analysis; format: ADME, Microsome
[12] = Plasma protein binding in human assessed as bound fraction at 1 uM incubated for 5 hrs by LC-MS/MS analysis; format: ADME, cell-free; details: read-out: PPB (converted)
[13] = MRT (0 to infinity) in Sprague-Dawley rat at 2 mg/kg,iv measured upto 24 hrs by LC-MS/MS analysis; format: ADME, organism-based; details: in vivo
[14] = target: Dual specificity tyrosine-phosphorylation-regulated kinase 3 (Homo sapiens) (UniProt O43781); assay: Inhibition of DYRK3 (unknown origin) at 1 uM preincubated with enzyme for 10 mins followed by substrate and ATP addition measured after 60 mins by ADP-Glo reagent based assay relative to control; details: time 70.0 min
Chain of Dual specificity tyrosine-phosphorylation-regulated kinase 3 (Homo sapiens) (O43781 whole entry): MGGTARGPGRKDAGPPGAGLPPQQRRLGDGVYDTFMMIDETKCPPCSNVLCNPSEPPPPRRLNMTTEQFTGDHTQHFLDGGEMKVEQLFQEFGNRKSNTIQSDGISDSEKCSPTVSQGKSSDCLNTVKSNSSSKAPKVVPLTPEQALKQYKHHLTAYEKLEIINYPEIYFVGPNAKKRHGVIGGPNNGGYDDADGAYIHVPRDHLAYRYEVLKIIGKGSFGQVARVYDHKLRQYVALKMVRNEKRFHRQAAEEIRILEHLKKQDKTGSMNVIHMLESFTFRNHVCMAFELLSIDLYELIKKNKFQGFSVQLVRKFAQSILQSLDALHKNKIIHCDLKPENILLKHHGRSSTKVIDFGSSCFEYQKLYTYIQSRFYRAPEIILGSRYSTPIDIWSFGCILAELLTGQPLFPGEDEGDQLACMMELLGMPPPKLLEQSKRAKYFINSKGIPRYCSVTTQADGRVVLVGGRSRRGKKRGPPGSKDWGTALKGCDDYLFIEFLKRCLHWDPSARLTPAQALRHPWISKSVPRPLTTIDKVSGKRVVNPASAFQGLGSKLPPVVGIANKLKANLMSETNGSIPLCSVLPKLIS

Mus musculus [15] = assay: Antialzheimer activity in okadaic acid-induced cognitive impairment C57BL/6 mouse assessed as increase in number of platform crossing at 10 to 30 mg/kg,po measured after 7 days by Morris water maze test; format: functional, organism-based; details: dose 10-30 mg/kg, time 7.0 day
[16] = Drug concentration in Sprague-Dawley rat brain at 10 mg/kg,po measured after 6 hrs by LC-MS/MS analysis; format: ADME, organism-based; details: read-out: Ct
[17] = target: T2, Dual specificity protein kinase CLK3; assay: Inhibition of CLK3 (unknown origin) preincubated with enzyme for 10 mins followed by substrate and ATP addition measured after 60 mins by ADP-Glo reagent based assay
Target sequence in this assay (P49761 whole entry): as the sequence (P49761 whole entry, looked up) above

[18] = Toxicity in okadaic acid-induced cognitive impairment C57BL/6 mouse assessed as change in serum AKP level at 10 to 30 mg/kg,po once daily for 2 weeks; format: organism-based; details: in vivo, 336 h, dose 10-30 mg/kg
[19] = target: Dual specificity tyrosine-phosphorylation-regulated kinase 1B (Homo sapiens, UniProt Q9Y463); assay: Inhibition of DYRK1B (unknown origin) at 1 uM preincubated with enzyme for 10 mins followed by substrate and ATP addition measured after 60 mins by ADP-Glo reagent based assay relative to control; details: time 70.0 min
Chain of Dual specificity tyrosine-phosphorylation-regulated kinase 1B (Q9Y463 whole entry, looked up): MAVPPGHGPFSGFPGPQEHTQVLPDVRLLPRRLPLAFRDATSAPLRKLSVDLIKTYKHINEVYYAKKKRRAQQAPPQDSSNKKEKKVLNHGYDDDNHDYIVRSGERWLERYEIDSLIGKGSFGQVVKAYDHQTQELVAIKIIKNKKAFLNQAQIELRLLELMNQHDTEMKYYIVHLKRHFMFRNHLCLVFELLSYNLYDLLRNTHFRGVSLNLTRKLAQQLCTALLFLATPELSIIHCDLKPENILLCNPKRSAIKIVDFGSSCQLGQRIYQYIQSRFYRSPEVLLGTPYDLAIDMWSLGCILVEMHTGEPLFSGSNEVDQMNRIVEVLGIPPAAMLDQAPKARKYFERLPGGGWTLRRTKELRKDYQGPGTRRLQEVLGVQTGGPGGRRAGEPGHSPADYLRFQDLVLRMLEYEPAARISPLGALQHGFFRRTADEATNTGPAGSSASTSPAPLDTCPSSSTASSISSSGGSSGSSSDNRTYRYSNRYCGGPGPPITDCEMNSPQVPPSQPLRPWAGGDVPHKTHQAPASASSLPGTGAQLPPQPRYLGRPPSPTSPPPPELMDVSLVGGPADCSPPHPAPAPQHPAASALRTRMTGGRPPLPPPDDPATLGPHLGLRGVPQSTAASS

CYP2C9 = CYP2C9 (Homo sapiens, UniProt P11712); assay: Inhibition of CYP2C9 in human liver microsomes using diclofenac as substrate at 10 uM preincubated for 10 mins followed by NADPH addition and measured after 40 mins by LC-MS/MS analysis relative to control; format: ADME, Microsome; details: probe diclofenac, time 50 min
Chain of CYP2C9 (P11712 whole entry): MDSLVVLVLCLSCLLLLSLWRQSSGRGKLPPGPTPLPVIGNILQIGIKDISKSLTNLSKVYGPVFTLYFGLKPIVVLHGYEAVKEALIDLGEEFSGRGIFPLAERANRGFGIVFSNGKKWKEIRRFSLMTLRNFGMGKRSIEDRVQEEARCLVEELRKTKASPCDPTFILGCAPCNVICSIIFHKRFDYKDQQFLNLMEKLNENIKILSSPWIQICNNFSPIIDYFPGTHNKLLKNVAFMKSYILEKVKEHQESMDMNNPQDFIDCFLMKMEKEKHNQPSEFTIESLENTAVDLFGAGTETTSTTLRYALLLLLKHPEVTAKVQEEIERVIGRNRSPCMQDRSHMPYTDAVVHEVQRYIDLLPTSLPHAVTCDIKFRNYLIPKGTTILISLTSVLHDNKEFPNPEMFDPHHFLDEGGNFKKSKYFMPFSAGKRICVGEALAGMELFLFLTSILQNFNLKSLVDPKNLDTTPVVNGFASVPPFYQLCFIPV

[20] = Acute toxicity in C57BL/6 mouse assessed as change in liver weight at 500 mg/kg,po observed after 14 days; format: organism-based; details: in vivo, 336 h, time 14 day
[21] = target: T1, Dual specificity protein kinase CLK4; assay: Inhibition of CLK4 (unknown origin) preincubated with enzyme for 10 mins followed by substrate and ATP addition measured after 60 mins by ADP-Glo reagent based assay
Target sequence in this assay (Q9HAZ1 whole entry): as the sequence (Q9HAZ1 whole entry, looked up) above

[22] = Cmax in Sprague-Dawley rat at 2 mg/kg,iv measured upto 24 hrs by LC-MS/MS analysis; format: ADME, organism-based; details: in vivo
[23] = Metabolic stability in human plasma assessed as half life at 2 uM incubated upto 60 mins […] by LC-MS/MS analysis; format: ADME, cell-free
[24] = AUC (0 to t) in Sprague-Dawley rat at 10 mg/kg,po measured upto 24 hrs by LC-MS/MS analysis; format: ADME, organism-based; details: in vivo
[25] = Toxicity in okadaic acid-induced cognitive impairment C57BL/6 mouse assessed as change in serum GSH level at 10 to 30 mg/kg,po once daily for 2 weeks; format: organism-based; details: in vivo, 336 h, dose 10-30 mg/kg
[26] = Half life in Sprague-Dawley rat at 10 mg/kg,po measured upto 24 hrs by LC-MS/MS analysis; format: ADME, organism-based; details: in vivo
[27] = Acute toxicity in C57BL/6 mouse assessed as histopathological change in heart at 500 mg/kg,po observed after 14 days by hematoxylin-eosin staining based analysis; format: organism-based; details: in vivo, 336 h, time 14 day
[28] = target: Glycogen synthase kinase-3 beta (Homo sapiens, UniProt P49841); assay: Inhibition of GSK-3beta (unknown origin) preincubated with enzyme for 10 mins followed by substrate and ATP addition measured after 60 mins by ADP-Glo reagent based assay
Chain of Glycogen synthase kinase-3 beta (P49841 whole entry): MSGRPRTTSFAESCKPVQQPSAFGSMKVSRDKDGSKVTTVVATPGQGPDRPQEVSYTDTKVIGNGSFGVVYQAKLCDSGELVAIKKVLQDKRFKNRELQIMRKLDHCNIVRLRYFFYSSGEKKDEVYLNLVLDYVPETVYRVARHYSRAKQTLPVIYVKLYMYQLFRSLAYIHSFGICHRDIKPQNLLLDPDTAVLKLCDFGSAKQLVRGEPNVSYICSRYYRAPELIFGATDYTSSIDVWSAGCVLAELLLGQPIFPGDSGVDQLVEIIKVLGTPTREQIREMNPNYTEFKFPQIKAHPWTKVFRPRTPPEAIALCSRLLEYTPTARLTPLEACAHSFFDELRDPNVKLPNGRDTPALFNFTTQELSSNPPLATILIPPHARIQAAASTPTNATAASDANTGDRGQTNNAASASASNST

Mus musculus [29] = assay: Antialzheimer activity in okadaic acid-induced cognitive impairment C57BL/6 mouse assessed as change in swimming speed at 10 to 30 mg/kg,po once daily for 2 weeks by Morris water maze test; format: functional, organism-based; details: dose 10-30 mg/kg
[30] = AUC (0 to infinity) in Sprague-Dawley rat at 10 mg/kg,po measured upto 24 hrs by LC-MS/MS analysis; format: ADME, organism-based; details: in vivo
[31] = target: Dual specificity protein kinase CLK1 (Homo sapiens, UniProt P49759); assay: Inhibition of CLK1 (unknown origin) preincubated with enzyme for 10 mins followed by substrate and ATP addition measured after 60 mins by ADP-Glo reagent based assay
Chain of Dual specificity protein kinase CLK1 (P49759 whole entry): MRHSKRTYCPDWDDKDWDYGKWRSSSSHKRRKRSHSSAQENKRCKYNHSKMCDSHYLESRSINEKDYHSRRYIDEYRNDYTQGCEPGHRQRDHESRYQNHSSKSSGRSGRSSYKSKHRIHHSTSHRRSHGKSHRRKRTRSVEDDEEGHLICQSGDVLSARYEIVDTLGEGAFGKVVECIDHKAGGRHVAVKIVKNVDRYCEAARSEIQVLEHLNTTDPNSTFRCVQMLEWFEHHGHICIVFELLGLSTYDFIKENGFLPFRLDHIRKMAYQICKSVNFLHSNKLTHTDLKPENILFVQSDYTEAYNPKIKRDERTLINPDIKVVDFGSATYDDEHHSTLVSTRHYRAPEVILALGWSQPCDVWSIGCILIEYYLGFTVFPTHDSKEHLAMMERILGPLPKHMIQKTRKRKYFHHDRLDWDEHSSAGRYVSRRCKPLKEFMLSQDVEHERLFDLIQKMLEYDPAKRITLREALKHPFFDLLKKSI

[32] = Toxicity in okadaic acid-induced cognitive impairment C57BL/6 mouse assessed as change in body weight at 10 to 30 mg/kg,po once daily for 2 weeks; format: organism-based; details: in vivo, 336 h, dose 10-30 mg/kg

In the case of `Cc1ccc2c(-c3ccc4ncnc(N[C@H](CO)c5ccccc5)c4c3)c[nH]c2n1`, the inhibition [1] is reported as 100%, the half-life [2] is reported as 2.95 h and the inhibition at 40 min, 10 µM (CYP1A2) is reported as 61.9%. For the same compound, the Activity [3] was “Non-Toxic”, the concentration at 4 h [4] was 39.1 ng/g and the Activity (SH-SY5Y) was “Active”. The Activity (Mus musculus [5]) was “Active”, the Activity (Mus musculus [6]) was “Active” and the concentration at 1 h [7] was 26.9 ng/g. The AUC(0-inf) [8] was 1590 ng·h/mL, the inhibition [9] was 113% and the bioavailability [10] was 39.7%. The half-life at […], 1 µM [11] was 1.53 h, the fraction unbound at 5 h, 1 µM [12] was 0.0033 and the MRT inf [13] was 4.49 h. For the same compound, the inhibition [14] was 98.1%, the Activity (Mus musculus [15]) was “Active” and the concentration at 6 h [16] was 13.1 ng/g. The IC50 [17] was 0.0389 µM, the Activity [18] was “Non-Toxic” and the inhibition [19] was 100%. The inhibition at 40 min, 10 µM (CYP2C9) was 96.5%, the Activity [20] was “Non-Toxic” and the IC50 [21] was 0.0389 µM. It also gave a Cmax [22] of 272 ng/mL, a half-life at 2 µM [23] greater than 3.33 h and an AUC(0-t) at 24 h [24] of 2990 ng·h/mL. For the same compound, the Activity [25] was “Non-Toxic”, the half-life [26] was 3.95 h and the Activity [27] was “Non-Toxic”. For the same compound, the IC50 [28] was 1.42 µM, the Activity (Mus musculus [29]) was “inactive” and the AUC(0-inf) [30] was 3010 ng·h/mL. For the same compound, the IC50 [31] was 0.00168 µM and the Activity [32] was “Non-Toxic”.
